Assay results published in US20260109721A1, “IONIZABLE CATIONIC LIPIDS INCORPORATING SILICON: SYNTHESIS AND LNP FORMULATION” (priority 2023, published 2026).
Where two headings read alike, the source gives them in different places.

Experiments:
[1] = LNP size, PDI and zeta potential by Dynamic Light Scattering (Method A); type: physicochemical; settings: LNP formulated with the lipid, DLS
How it was run: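 LNPs formed by microfluidic mixing of ethanolic lipid mix with Luc mRNA in 10 mM citrate pH 4.0, about 12 ml/min total flow at 3:1 ratio. Particle size, PDI and zeta potential then measured by dynamic light scattering.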

HepG2 cell line = experiment: In vitro toxicity study on HepG2 cell line (resazurin, viability and IC50); type: cell-based, human; settings: for IC50: read-out: IC50 value, μM (on HepG2 cell)
How it was run: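 HepG2 cells (1000/well) were treated after overnight incubation with lipids at 6.25–800 μM for 48 h. Viability was read by resazurin fluorescence (530/580 nm) after 5 h at 37 °C, relative to ethanol vehicle controls. IC50 values came from concentration-response curves.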

[2] = HepG2 cells, 6.25 μM lipid, 48 h post-treatment, resazurin, relative to ethanol vehicle controls
[3] = HepG2 cells, 12.5 μM lipid, 48 h post-treatment, resazurin, relative to ethanol vehicle controls
[4] = HepG2 cells, 25 μM lipid, 48 h post-treatment, resazurin, relative to ethanol vehicle controls
[5] = HepG2 cells, 50 μM lipid, 48 h post-treatment, resazurin, relative to ethanol vehicle controls
[6] = HepG2 cells, 100 μM lipid, 48 h post-treatment, resazurin, relative to ethanol vehicle controls
[7] = HepG2 cells, 200 μM lipid, 48 h post-treatment, resazurin, relative to ethanol vehicle controls
[8] = HepG2 cells, 400 μM lipid, 48 h post-treatment, resazurin, relative to ethanol vehicle controls
[9] = HepG2 cells, 800 μM lipid, 48 h post-treatment, resazurin, relative to ethanol vehicle controls
[10] = Homo sapiens, lipid toxicity, HepG2, 48 h post-treatment, resazurin, 6.25-800 μM

Compound | PDI [1] | Size (nm) [1] [nm] | Zeta potential (mV) [1] [mV] | Viability (%) at different lipid concentrations, mean (HepG2 cell line; [2]) [%] | Viability (%) at different lipid concentrations, mean (HepG2 cell line; [3]) [%] | Viability (%) at different lipid concentrations, mean (HepG2 cell line; [4]) [%] | Viability (%) at different lipid concentrations, mean (HepG2 cell line; [5]) [%] | Viability (%) at different lipid concentrations, mean (HepG2 cell line; [6]) [%] | Viability (%) at different lipid concentrations, mean (HepG2 cell line; [7]) [%] | Viability (%) at different lipid concentrations, mean (HepG2 cell line; [8]) [%] | Viability (%) at different lipid concentrations, mean (HepG2 cell line; [9]) [%] | IC50 (HepG2 cell line; [10]) [µM] | Viability (%) at different lipid concentrations, mean (HepG2 cell line; human, 48 h, 6.25 μM) [%] | Viability (%) at different lipid concentrations, mean (HepG2 cell line; human, 48 h, 50 μM) [%] | IC50 (HepG2 cell line; Homo sapiens, HepG2, 48 h) [µM] | IC50 (HepG2 cell line; lipid toxicity, HepG2, 48 h post-treatment, resazurin, 6.25-800 μM) [µM]
CCCCCCCC/C=C\CCCCCCCCOC(=O)C(C)(C)CC(OCCCCCCCC/C=C\CCCCCCCC)O[Si](C)(C)OCCCCCCN(C)CC(O)CO (centres unmarked) [Example 92, (Z)-octadec-9-en-1-yl 1,2-dihydroxy-4,12,12,16,16-pentamethyl-14-(((Z)-octadec-9-en-1-yl)oxy)-11,13-dioxa-4-aza-12-silaheptadecan-17-oate] | 0.23 | 85.81 | −12.56 | 105.5 | 104.3 | 110.6 | 109.4 | 98.9 | 80.7 | 63.8 | 49.2 | 691 |  |  |  | 
CCCCCCCC/C=C\CCCCCCCCOC(=O)C(C)(C)CC(OCCCCCCCC/C=C\CCCCCCCC)O[Si](C)(C)OCCCCCCN(C)CCO (centres unmarked) [Example 93, (Z)-octadec-9-en-1-yl 1-hydroxy-3,11,11,15,15-pentamethyl-13-(((Z)-octadec-9-en-1-yl)oxy)-10,12-dioxa-3-aza-11-silahexadecan-16-oate] | 0.15 | 82.7 | −14.61 | 102.3 | 99.0 | 105.2 | 112.1 | 111.6 | 99.7 | 83.4 | 72.2 | > 800 |  |  |  | 
CCCCCCCC/C=C\CCCCCCCCOC(=O)C(C)(C)CCC(OCCCCCCCC/C=C\CCCCCCCC)O[Si](C)(C)OCCCCCCN(CCO)CCO (centres unmarked) [Example 94, (Z)-octadec-9-en-1-yl 1-hydroxy-3-(2-hydroxyethyl)-11,11,16,16-tetramethyl-13-(((Z)-octadec-9-en-1-yl)oxy)-10,12-dioxa-3-aza-11-silaheptadecan-17-oate] | 0.24 | 93.8 | −12.89 |  | 96.6 | 97.9 |  | 106.5 | 107.9 | 104.0 | 103.1 | > 800 | 101.5 | 101.3 |  | 
CCCCCCCC/C=C\CCCCCCCCOC(=O)C(C)(C)CCC(OCCCCCCCC/C=C\CCCCCCCC)O[Si](C)(C)OCCCCCCN1CCOCC1 (centres unmarked) [Example 95, (Z)-octadec-9-en-1-yl 5-((dimethyl((6-morpholinohexyl)oxy)silyl)oxy)-2,2-dimethyl-5-(((Z)-octadec-9-en-1-yl)oxy)pentanoate] | 0.15 | 90.33 | −20.80 | 102.8 | 97.8 | 98.4 | 99.7 | 98.8 | 100.3 | 103.6 | 104.6 | > 800 |  |  |  | 
CCCCCCCC/C=C\CCCCCCCCOC(=O)C(C)(C)CC(OCCCCCCCC/C=C\CCCCCCCC)O[Si](C)(C)OCCCCCCN(CCO)CCN(CCO)CCCCCCO[Si](C)(C)OC(CC(C)(C)C(=O)OCCCCCCCC/C=C\CCCCCCCC)OCCCCCCCC/C=C\CCCCCCCC (centres unmarked) [Example 96, di((Z)-octadec-9-en-1-yl) 14,17-bis(2-hydroxyethyl)-2,2,6,6,25,25,29,29-octamethyl-4,27-bis(((Z)-octadec-9-en-1-yl)oxy)-5,7,24,26-tetraoxa-14,17-diaza-6,25-disilatriacontanedioate] | 0.14 | 81.42 | −17.77 | 98.62 | 98.94 | 97.36 | 96.50 | 95.63 | 90.16 | 67.88 | 5.80 | 465 |  |  |  | 
C#CCN(C)CCCCCCO[Si](C)(C)OC(CC(C)(C)C(=O)OCCCCCCCC/C=C\CCCCCCCC)OCCCCCCCC/C=C\CCCCCCCC (centres unmarked) [Example 97, (Z)-octadec-9-en-1-yl 4,12,12,16,16-pentamethyl-14-(((Z)-octadec-9-en-1-yl)oxy)-11,13-dioxa-4-aza-12-silaheptadec-1-yn-17-oate] | 0.26 | 101.9 | −22.01 | 100.7 | 96.1 | 95.5 | 97.5 | 98.9 | 99.7 | 91.8 | 0.7 |  |  |  | 501 | 
CCCCCCCCCCCOC(=O)CCCCCN(CCO)CCCCCCCC(=O)OC(CCCCCCCC)CCCCCCCC [SM-102, reference compound] |  | 77.03 | −5.03 | 86.5 | 101.5 | 101.7 | 101.4 | 21.2 | 0.4 | 0.2 | 0.0 |  |  |  |  | 85
